Results: US20200397764A1, “VAP-1 INHIBITORS FOR TREATING PAIN” (BENEVOLENTAI CAMBRIDGE LIMITED, priority 2015, published 2020)

How the values were obtained:
[1] = system: CCI induced neuropathic pain; assay: Chronic Constriction Injury (CCI) model of neuropathic pain, mechanical allodynia (von-Frey); format: in vivo, rat
From the text: The Chronic Constriction Injury (CCI) model of neuropathic pain involves unilateral loose ligation of four ligatures around the left sciatic nerve at mid-thigh level spaced 1 mm apart. This procedure results in the development of hyperalgesia, allodynia and spontaneous pain (ectopic discharges) which can be measured using mechanical and thermal behavioural assessments. As such, this model is believed to mimic some of the symptoms and aetiology of neuropathic pain observed in the clInic (Bennett G J and Xie Y K., 1988; Field et al., 1999).
Naive male Sprague Dawley rats weighing 200-250 g were acclimatised to the procedure room in their home cages, with food and water available ad libitum. All animals underwent behavioural testing of mechanical allodynia prior to surgery in order to determine the baseline withdrawal thresholds. The average of the last two (out of three) baseline paw-withdrawal thresholds to stimulation with von-Frey hairs was taken as the baseline.
Under Isoflurane anaesthesia mixed with oxygen […] the left hind leg was shaved mid-thigh level and an incision made through the skin using a scalpel. The biceps femoris muscle layer was dissected by making an initial incision using a pair of sharp scissors, which was then widened using a pair of blunt scissors. The common sciatic nerve was exposed using a pair of forceps and 4 loose ligatures of chromic gut (SMI) were tied around the sciatic nerve with 1 mm spacing between each. The nerve was then returned below the muscle layer and the wound closed using absorbable sutures (Vicryl).
Behavioural testing started 19 days post-surgery with mechanical readings taken on day 19, and day 22. […]
On day 23, animals were treated orally with either Vehicle (30% aqueous hydroxypropyl-beta-cyclodextrin), 4-{5-[3-(4-Fluorophenyl)-3H-imidazo[4,5-c]pyridin-2-yl]pyridin-2-yl}morpholine 15, 50 and 150 mg/kg (5 mL/kg dose volume), or Pregabalin 30 mg/kg (2 mL/kg dose volume in water). Paw withdrawal thresholds (PWT) from each of the animals (mechanical von-Frey, mvF) were evaluated at 1 and 3 hours post dosing.
Static mechanical (tactile) allodynia: Measurement of withdrawal threshold was achieved using calibrated (force; g) von-Frey monofilaments (Touch-Test Sensory Evaluator; Scientific Marketing Associates) applied to the plantar surface of the hindpaw. Withdrawal threshold was determined by increasing and decreasing stimulus intensity, and estimated using the Dixon's up-down method (Dixon, 1980; Chaplan et al., 1994). […]
Mechanical allodynia (von Frey) data were analysed using two-way repeated measures ANOVA with ‘treatment’ as a between subjects effect and ‘day’ as a within subjects effect. […]

[2] = system: CFA induced hypersensitivity; assay: CFA induced hypersensitivity in rat, weight bearing (incapacitance tester); format: in vivo; details: for inhibition of the hypersensitivity response (weight bearing) / reversal of CFA induced hypersensitivity (weight bearing): rat
Experimental: (§1) Assessment of the anti-hyperalgesic properties of (3S)-tetrahydrofuran-3-yl (4S)-4-isopropyl-1,4,6,7-tetrahydro-5H-imidazo[4,5-c]pyridine-5-carboxylate mesylate salt was determined through measurement of weight bearing following CFA induced hypersensitivity. Naive rats distribute their body weight equally between the two hind paws. However, when the injected (left) hind paw is painful, the weight is re-distributed so that less weight is put on the affected paw (decrease in weight bearing on injured paw). Weight bearing through each hind limb was measured using a rat incapacitance tester (Linton Instruments, UK). Rats were placed in the incapacitance tester with the hind paws on separate sensors and the average force exerted by both hind limbs was recorded over 4 seconds. The injection of CFA also induces an oedema that can be assessed by paw volume; this is measured using a plethysmometer. The rat's hind paw is placed into the cylinder containing a solution and the volume of displaced liquid determines the paw volume.
Naive male, Sprague Dawley rats were acclimatised with food and water available ad libitum. Habituation to the incapacitance tester was performed. Baseline weight bearing and paw volume recordings were taken prior to induction of insult. Inflammatory hypersensitivity was induced by intraplantar injection of CFA (100μl of 1 mg/ml solution) into the left hind paw. A pre-treatment weight bearing and paw volume measurement was taken to assess hypersensitivity 23 hours post-CFA. Animals were then ranked and randomised according to CFA window in a Latin square design. […] (dosed in water at 2 mL/Kg, pH ˜5-6), alongside vehicle and reference group (indomethacin), n=9-10 per group. Weight bearing was assessed in all groups 1, 2 and 4 hours post compound administration. Paw volume was assessed 4 hours post compound administration. Data was analysed by comparing treatment groups to control group at each time point. Weight bearing (g) readings were taken for both right and left hind paws and the difference calculated. Data is expressed as % reversal of the hypersensitivity to pain, (post dose reading—pre dose reading)/(naïve reading—pre dose reading)×100, where naive weight bearing difference—pre dose weight bearing difference is defined as the CFA window to be reversed Statistical analysis was conducted by means of repeated measures ANOVA followed by Planned comparison test using InVivoStat (invivostat.co.uk), (p<0.05 considered significant).
as §1, with “of (S)-Carbidopa” for “of (3S)-tetrahydrofuran-3-yl (4S)-4-isopropyl-1,4,6,7-tetrahydro-5H-imidazo[4,5-c]pyridine-5-carboxylate mesylate salt”, “the Incapacitance” for “the incapacitance”
Naive male, Sprague Dawley rats were acclimatised with food and water available ad libitum. Habituation to the incapacitance tester was performed. Baseline weight bearing and paw volume recordings were taken prior to induction of insult. Inflammatory hypersensitivity was induced by intraplantar injection of CFA (100 μl of 1 mg/ml solution) into the left hind paw.

CFA induced oedema = CFA induced oedema in rat, paw volume (plethysmometer); format: in vivo
Experimental: as §1, with “The rat's hind paw is placed into the cylinder containing a solution and the volume of displaced liquid determines the paw volume.” left out
Naive male, Sprague Dawley rats were acclimatised with food and water available ad libitum. […] Weight bearing was assessed in all groups 1, 2 and 4 hours post compound administration. […] Data was analysed by comparing treatment groups to control group at each time point. Weight bearing (g) readings were taken for both right and left hind paws and the difference calculated. […]
Data Is expressed as % reversal of the hypersensitivity to pain. Paw Volume (mL) readings were taken for the left hind paws. […]

[3] = oral 10 mg/kg, 1 and 4 hours post administration
[4] = oral 1, 3 and 10 mg/kg, 24 hours post CFA, 1 and 4 hours post treatment

## CC(C)C[C@H](CN)CC(=O)O [Pregabalin, reference compound]
[1]; rat CCI, 30 mg/kg p.o., day 23 post-surgery, reference
  withdrawal threshold (von-Frey mechanical allodynia): increased the withdrawal threshold to a degree that was comparable with those animals that had undergone sham surgery

## CC(=O)N1CCN(c2ccc(-c3nc4ccncc4n3-c3ccc(F)cc3)cn2)CC1 [Compound 2, 1-(4-{5-[3-(4-Fluorophenyl)-3H-imidazo[4,5-c]pyridin-2-yl]pyridin-2-yl}piperazin-1-yl)ethan-1-one]
[2]; [3]
  inhibition of the hypersensitivity response (weight bearing): significantly inhibiting the hyperactivity response at both 1 and 4 hours post administration
[2]; [4]
  inhibition of the hypersensitivity response (weight bearing): dose-dependently inhibited the hypersensitivity response

## C[C@]12C=CC(=O)C=C1CC[C@@H]1[C@@H]2[C@@H](O)C[C@@]2(C)[C@H]1CC[C@]2(O)C(=O)CO [Prednisolone, reference compound]
[2]; Part A, 0.3-10 mg/kg alone, 1 and 3 hours post treatment, FIG. 3
  inhibition of the hypersensitivity response (weight bearing): dose-dependently inhibited the hypersensitivity response

## CC(C)[C@H]1c2nc[nH]c2CCN1C(=O)O[C@H]1CCOC1.CS(=O)(=O)O [(3S)-tetrahydrofuran-3-yl (4S)-4-isopropyl-1,4,6,7-tetrahydro-5Himidazo[4,5-c]pyridine-5-carboxylate mesylate salt]
CFA induced oedema; rat, 150, 250 and 500 mg/kg p.o., 4 hours post compound administration
  effect on paw volume: No effect

## CC(C)[C@H]1c2nc[nH]c2CCN1C(=O)O[C@H]1CCOC1.CS(=O)(=O)O [(3S) Tetrahydrofuran-3-yl (4S)-4-isopropyl-1,4,6,7-tetrahydro-5H-imidazo[4,5-c]pyridine-5-carboxylate mesylate salt]
[2]; 150 mg/kg p.o., 1, 2 and 4 hours post dose
  reversal of CFA induced hypersensitivity (weight bearing): no significant reversal of hypersensitivity at any time point
[2]; 250 mg/kg p.o., 1, 2 and 4 hours post dose
  reversal of CFA induced hypersensitivity (weight bearing): significant reversal at 4 hours
[2]; 500 mg/kg p.o., 1, 2 and 4 hours post dose
  reversal of CFA induced hypersensitivity (weight bearing): effective at all time points with maximum effect seen at 4 hours post dose

## Fc1ccc(-n2c(-c3ccc(N4CCOCC4)nc3)nc3ccncc32)cc1 [4-{5-[3-(4-Fluorophenyl)-3H-imidazo[4,5-c]pyridin-2-yl]pyridin-2-yl}morpholine]
[1]; rat CCI, 50 mg/kg p.o., vs the vehicle group
  withdrawal threshold (von-Frey mechanical allodynia): reaching statistical significance at 3 h
[1]; rat CCI, 150 mg/kg p.o., vs the vehicle group
  withdrawal threshold (von-Frey mechanical allodynia): reaching statistical significance vs the vehicle group at 1 h and 3 h
[1]; rat CCI, 15, 50 and 150 mg/kg p.o., 1 and 3 hours post dosing, FIG. 9
  withdrawal threshold (von-Frey mechanical allodynia): increased withdrawal threshold in a dose and temporally dependent fashion

## CC(C)[C@H]1c2nc[nH]c2CCN1C(=O)O[C@H]1CCOC1 [(3S)-Tetrahydrofuran-3-yl (4S)-4-isopropyl-1,4,6,7-tetrahydro-5H-imidazo[4,5-c]pyridine-5-carboxylate]
[2]; rat, 150, 250 and 500 mg/kg p.o., compared with indomethacin 10 mg/kg, FIG. 1
  efficacy in CFA hyperalgesia model (reversal of hypersensitivity): effective in a dose-dependent manner, and comparably in efficacy to the gold standard benchmark indomethacin

## COc1ccc2c(c1)c(CC(=O)O)c(C)n2C(=O)c1ccc(Cl)cc1 [indomethacin, reference compound]
[2]; 10 mg/kg, 24 hours post CFA, reference
  reversal of CFA induced hypersensitivity (weight bearing): marked reversal of the hypersensitivity

## C[C@@](Cc1ccc(O)c(O)c1)(NN)C(=O)O [(S)-Carbidopa, reference compound]
[2]; Part B, 3-100 mg/kg alone, 1 and 3 hours post treatment, FIG. 4
  inhibition of the hypersensitivity response (weight bearing): dose-dependently inhibited the hypersensitivity response
CFA induced oedema; rat, Part B, 3-100 mg/kg, 3 hours post treatment, FIG. 5
  effect on oedema (paw volume): no effect on oedema

## CS(=O)(=O)N1CCN(c2ccc(-c3nc4ccncc4n3-c3ccc(F)cc3)cn2)CC1 [1-{5-[3-(4-Fluorophenyl)-3H-imidazo[4,5-c]pyridin-2-yl]pyridin-2-yl}-4 methanesulfonylpiperazine]
[2]; oral 3 mg/kg, 1 and 4 hours post administration
  inhibition of the hypersensitivity response (weight bearing): significant reduction at 4 hours post administration
[2]; [3]
  inhibition of the hypersensitivity response (weight bearing): significantly inhibiting the hyperactivity response at both 1 and 4 hours post administration
[2]; [4]
  inhibition of the hypersensitivity response (weight bearing): dose-dependently inhibited the hypersensitivity response
